Assay results from US7642350B2, “Purine derivatives” (Pfizer Limited, priority 2005, dated 2010).
Like-named read-outs stand apart in the source and are kept apart here.

Tests used:
TLR7 receptor [1] = biological target: T1, TLR7 receptor (Homo sapiens, UniProt Q9NYK1); assay: cell-based; conditions: for inhibition at 10 µM: read-out: inhibition at 10 μM
T1 sequence (Q9NYK1 27-1049): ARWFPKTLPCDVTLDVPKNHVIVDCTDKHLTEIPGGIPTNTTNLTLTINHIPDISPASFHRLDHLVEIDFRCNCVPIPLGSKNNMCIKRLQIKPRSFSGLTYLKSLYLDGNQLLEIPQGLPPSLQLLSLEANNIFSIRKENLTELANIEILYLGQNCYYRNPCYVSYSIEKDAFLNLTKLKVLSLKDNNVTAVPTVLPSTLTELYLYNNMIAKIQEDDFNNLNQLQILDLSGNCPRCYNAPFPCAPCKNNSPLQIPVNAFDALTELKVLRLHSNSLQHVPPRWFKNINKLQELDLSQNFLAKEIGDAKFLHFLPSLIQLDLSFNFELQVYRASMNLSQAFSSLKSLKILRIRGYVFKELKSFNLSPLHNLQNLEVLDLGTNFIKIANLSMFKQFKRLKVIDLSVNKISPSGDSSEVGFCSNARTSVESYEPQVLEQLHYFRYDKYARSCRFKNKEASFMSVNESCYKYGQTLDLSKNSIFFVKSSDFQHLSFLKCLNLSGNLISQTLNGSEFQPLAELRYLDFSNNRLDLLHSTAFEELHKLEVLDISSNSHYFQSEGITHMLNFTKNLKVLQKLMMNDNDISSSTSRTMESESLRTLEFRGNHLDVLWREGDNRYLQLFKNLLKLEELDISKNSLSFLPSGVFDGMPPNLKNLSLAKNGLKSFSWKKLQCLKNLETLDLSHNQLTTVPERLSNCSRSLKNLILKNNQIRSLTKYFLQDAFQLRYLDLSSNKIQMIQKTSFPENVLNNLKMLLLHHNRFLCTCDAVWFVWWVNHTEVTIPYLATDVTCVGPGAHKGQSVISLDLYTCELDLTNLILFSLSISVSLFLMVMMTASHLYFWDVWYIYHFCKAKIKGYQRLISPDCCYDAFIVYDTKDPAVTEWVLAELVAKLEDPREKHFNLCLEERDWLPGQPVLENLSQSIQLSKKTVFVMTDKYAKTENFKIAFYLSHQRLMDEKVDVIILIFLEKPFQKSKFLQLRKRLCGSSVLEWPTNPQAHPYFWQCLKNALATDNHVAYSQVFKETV
Procedure: (§1) PBL contain as a subpopulation plasmacytoid dendritic cells which are the natural interferon producing cells during an infection and as such are an excellent model in which to profile interferon inducers. As an extremely sensitive antiviral bioassay, supernatant taken from PBL is assayed for antiviral activity in the HCV replicon system.
(§2) The HCV replicon (Huh-5-2[I389luc-ubi-neo-NS3-3′/ET]) is an in vitro model of HCV replication in which the luciferase reporter is incorporated into HCV sequences and stably maintained in the human hepatoma cell line Huh-7. The firefly luciferase reporter is expressed as a luciferase-ubiquitin-neomycin phosphotransferase fusion protein which is cleaved by host proteases to release luciferase. The replicon also contains an internal EMCV IRES, which drives translation of HCV NS3-5B polyprotein, which harbour cell culture adapted mutations to permit high cloning efficiency. […] Firefly luciferase activity is detected using a Bright-Glo™ Luciferase Assay System manufactured by Promega.
(§3) An initial 3 fold serial dilution series of compounds in 100% DMSO is prepared from stocks. The dilution series is then further diluted 100 fold with complete RPMI—FCS. The final concentration of DMSO in the assay is thus 0.1% and that of the test compound is 1/1000 in the 100% DMSO dilution series.
(§4) PBL are prepared seeded at 5×10^5/well/90 μl into the previously prepared compound containing assay plates (96 well clear bottomed TC grade) and incubated for 24 h.
(§5) LucUbiNeo HCV replicon cells are seeded at 10^4/well/90 μl. These are incubated for 24 h. After 24 h 10 μl of medium is transferred from the PBL assay plates to the HCV replicon plates and incubated for a further 48 h.

TLR7 receptor [2] = biological target: T1, TLR7 receptor; conditions: read-out: EC50 (antiviral EC50); concentration of test compound applied to PBL (24 h) giving 50% reduction of HCV replicon levels after transfer of PBL medium to Huh-5-2 luciferase replicon cells (48 h)
Procedure: as §1, §2, §3, §4, §5

Row | SMILES | EC50 (TLR7 receptor [1]) [nM] | inhibition at 10 µM (TLR7 receptor [1]) [%] | EC50 (TLR7 receptor [2]) [nM]
1 | Nc1nc(C(=O)NCC2CC2)nc2c1[nH]c(=O)n2Cc1ccccc1 [Example 1, 6-Amino-9-benzyl-8-oxo-8,9-dihydro-7H-purine-2-carboxylic acid cyclopropylmethyl-amide] | 30 | > 50 | –
2 | COCCNC(=O)c1nc(N)c2[nH]c(=O)n(Cc3ccccc3)c2n1 [Example 2] | – | > 50 | 5
3 | Nc1nc(C(=O)N2CCC2)nc2c1[nH]c(=O)n2Cc1ccccc1 [Example 4] | 72 | > 50 | –
4 | CNC(=O)c1nc(N)c2[nH]c(=O)n(Cc3ccccc3)c2n1 [Example 5] | 42 | > 50 | –
5 | CCNC(=O)c1nc(N)c2[nH]c(=O)n(Cc3ccccc3)c2n1 [Example 6] | 17 | > 50 | –
6 | NC(=O)c1nc(N)c2[nH]c(=O)n(Cc3ccccc3)c2n1 [Example 11] | – | > 50 | –
7 | Nc1nc(C(=O)NCc2ccccc2)nc2c1[nH]c(=O)n2Cc1ccccc1 [Example 14] | – | > 50 | –
8 | COCCn1c(=O)[nH]c2c(N)nc(C(=O)NCc3ccccc3)nc21 [Example 33] | – | > 50 | –
9 | COCCn1c(=O)[nH]c2c(N)nc(C(=O)N(C)Cc3ccccc3)nc21 [Example 36] | – | > 50 | –
10 | Cc1ccc(S(=O)(=O)NC(=O)c2nc(N)c3[nH]c(=O)n(Cc4ccccc4)c3n2)cc1 [Example 221, 6-Amino-9-benzyl-N-(toluylsulfonyl)-8-oxo-8,9-dihydro-7H-purine-2-carboxamide] | – | > 50 | –
11 | Nc1nc(C(=O)NS(=O)(=O)c2ccccc2)nc2c1[nH]c(=O)n2Cc1ccccc1 [Example 222] | – | > 50 | –
12 | CCCCS(=O)(=O)NC(=O)c1nc(N)c2[nH]c(=O)n(Cc3ccccc3)c2n1 [Example 226] | – | > 50 | –
